From patent US20260078118A1, “COMBINED PRODUCT, SALT AND USE THEREOF” (SHANGHAI HENLIUS BIOTECH, INC., priority 2023, published 2026)
Structures can show the parent of a compound that is named as a salt.

How the values were obtained:
CD4-positive T cells = assay: Proliferation of CD4-positive T cells from Anti-CD3/CD28-stimulated PBMCs (CellTrace, flow cytometry); format: cell-based, human; details: FIG. 5; compound Y 200 μM, Y+N 200 μM+100 μM, 72 h; vs. DMSO control
Description: (§1) First, a certain amount of human peripheral blood mononuclear cells (PBMCs) were incubated with 5 μM CellTrace cell proliferation assay reagent in an incubator at 37° C. with 5% CO2 in the dark for 20 min. Then, 1.5×10^5 CellTrace-stained PBMCs were seeded in a 96-well U-bottom plate and treated with Anti-CD3/CD28 antibody-coupled magnetic beads at a ratio of 1:1 (cell count:magnetic bead count) to induce differentiation into T cells. Subsequently, various compounds at corresponding concentrations (compound Y: 200 µM; compound N: 100 µM; compound combination Y+N: 200 μM+100 μM; control group: UDCA (100 μM)) were co-incubated with the above-treated cells in the incubator at 37° C. with 5% CO2 for 72 h, followed by analysis by a flow cytometer. Specifically, the test cells were first treated with a Live/dead dye (633 nm, 1:1000 dilution) at 4° C. for 30 min to distinguish dead cells from live cells. Subsequently, the above test cells were simultaneously co-incubated with wavelength dyes anti-CD45-PerCPCy5.5, anti-CD4-AF700, and anti-CD8-FITC at room temperature for 30 min to distinguish different series of T cells (CD4-positive T cells and CD8-positive T cells). After appropriate washing, the above-stained cells were analyzed by a flow cytometer at different wavelengths. […] Proliferation of CD4-positive and CD8-positive T cells was determined by the fluorescence of CellTrace dye.

CD8-positive T cells = assay: Proliferation of CD8-positive T cells from Anti-CD3/CD28-stimulated PBMCs (CellTrace, flow cytometry); format: cell-based, human; details: FIG. 6; compound Y 200 μM, Y+N 200 μM+100 μM, 72 h; vs. DMSO control
Description: as §1

HepG2 cells = assay: Protection of hepatocytes from deoxycholic acid (DCA)-induced cell damage, CCK8 viability; format: cell-based; details: then 1 mM DCA 4 h; for cell viability: compound N 50 μM for 24 h, vs. DCA-treated group
Description: (§2) First, 2.5×10^4 HepG2 cells were seeded in a 96-well flat-bottom plate with an MEM medium containing 10% fetal bovine serum. The cells were cultured overnight in an incubator at 37° C. with 5% CO2 for adhesion. Subsequently, various compounds at corresponding concentrations (compound Y: 100 μM; compound B: 100 μM; compound N: 50 μM) were incubated with the HepG2 cells in the incubator at 37° C. with 5% CO2 for 24 h. All groups, except for the blank control group, were treated with 1 mM deoxycholic acid (DCA, a secondary bile acid that can directly induce hepatocyte damage) for 4 h. All groups were supplemented with 10 μL of CCK8 reagent and incubated under the incubator conditions for 1 h. The absorbance was measured at a wavelength of 450 nm using a microplate reader, which indirectly reflected the number of viable cells. All data were calculated and presented as percentages relative to the absorbance measured in the blank control group not treated with deoxycholic acid.
as §2, with “Y: 50” for “Y: 100 μM; compound B: 100”, “N: 50 µM; compound combination Y+N: 50 μM+50 μM (molar ratio: 1:1); YN salt:” for “N:”, “h. Then, the” for “h. The”
as §2, with “µM;” for “μM; compound B: 100 μM;”, “µM; compound combination Y+N: 100 μM+50 μM (molar ratio: 2:1))” for “μM)”
First, 2.5×10^4 HepG2 cells were seeded in a 96-well flat-bottom plate with an MEM medium containing 10% fetal bovine serum. The cells were cultured overnight in an incubator at 37° C. with 5% CO2 for adhesion. […] The absorbance was measured at a wavelength of 450 nm using a microplate reader, which indirectly reflected the number of viable cells. […]

[1] = test system: mice subjected to intragastric administration of α-naphthylisothiocyanate (ANIT); assay: ANIT mouse model, serological indicators; format: in vivo, C57BL/6 mice; details: vs. ANIT model group
Excerpt: In order to verify the technical effects observed in the in vitro cell models, this experiment further examined the effects of compound Y and compound B on serological indicators in a mouse model subjected to intragastric administration of α-naphthylisothiocyanate (ANIT). Fifty-four female C57BL/6 mice aged 6-8 weeks were purchased from Shanghai Lingchang Biotechnology Co., Ltd. After one week of acclimatization, the mice were divided into 6 groups according to body weight, and this time point was designated as day −3. The test compound in each group was intragastrically administered starting from day −3. After three consecutive days of administration, modeling was performed by intragastric administration of ANIT at a dose of 50 mg/kg, and this time point was designated as day 0. During modeling, the healthy group (control) received a single oral dose of pure olive oil. Throughout the entire experimental period, both the healthy group (control) and the model group (ANIT) were given corresponding doses of vehicle (sodium carboxymethylcellulose) according to body weight. The mice were observed daily for health status and body weight changes. The experimental endpoint was day 2; prior to euthanasia, the mice were fasted for 6 h, and cardiac blood collection and liver sample acquisition were performed under anesthesia. The primary indicators were serological changes including AST, ALT, and ALP.
In order to verify the technical effects observed in the DDC model, this experiment further examined the effects of various compound combinations on serological indicators in a mouse model subjected to intragastric administration of α-naphthylisothiocyanate (ANIT). Fifty-six female C57BL/6 mice aged 6-8 weeks were purchased from Shanghai Lingchang Biotechnology Co., Ltd. After one week of acclimatization, the mice were divided into 7 groups according to body weight, and this time point was designated as day −3. The compound in each group was intragastrically administered starting from day −3. After three consecutive days of administration, modeling was performed by intragastric administration of ANIT at a dose of 50 mg/kg, and this time point was designated as day 0. The normal control group received a single oral dose of pure olive oil. Throughout the entire experimental period, both the healthy group (control) and the model group (ANIT) were given corresponding doses of vehicle (sodium carboxymethylcellulose) according to body weight. The mice were observed daily for health status and body weight changes. The experimental endpoint was day 2; prior to euthanasia, the mice were fasted for 6 h, and cardiac blood collection and liver sample acquisition were performed under anesthesia. The primary indicators were serological changes including AST, ALT, and ALP.

[2] = test system: mice fed with feed containing 0.1% DDC (DDC model); assay: DDC model, serological indicators and liver pathology; format: in vivo, C57BL/6 mice; details: Example 12, FIG. 17; U 100 mg/kg, combinations 100+100 mg/kg; vs. DDC model group
Excerpt: Seventy-one male C57BL/6 mice aged 10 weeks were purchased from Shanghai Lingchang Biotechnology Co., Ltd. […] The compound in each group was intragastrically administered starting from day 0. Throughout the entire experimental period, both the healthy group (control) and the model group (DDC) were given corresponding doses of vehicle (sodium carboxymethylcellulose) according to body weight. The mice were observed daily for health status and body weight changes. The experimental endpoint was day 20. Prior to euthanasia, the mice were fasted for 6 h, and cardiac blood collection and liver sample acquisition were performed under anesthesia. The primary indicators were serological changes including AST, ALT, and ALP; pathological analysis was performed by HE staining. The specific grouping and the administration dose for each group are shown in the table below: Fifty-six male C57BL/6 mice aged 10 weeks were purchased from Shanghai Lingchang Biotechnology Co., Ltd. […] The compound in each group was intragastrically administered starting from day 0. Throughout the entire experimental period, both the healthy group (control) and the model group (DDC) were given corresponding doses of vehicle (sodium carboxymethylcellulose) according to body weight. The mice were observed daily for health status and body weight changes. The experimental endpoint was day 20. […]

[3] = Example 4, FIG. 1, compound Y 100 μM, compound B 100 μM
[4] = Example 9, FIG. 9, 100 and 50 mg/kg intragastric twice daily

COc1cc2cc3[n+](cc2cc1OC)CCc1cc2c(cc1-3)OCO2 [Compound Y]
proliferation of CD4-positive T cells (CD4-positive T cells): significantly inhibited | proliferation of CD8-positive T cells (CD8-positive T cells): significantly inhibited | cell viability (HepG2 cells; [3]): highly significant increase in cell viability | cell viability (percentage relative to blank control) (HepG2 cells; Example 5, FIG. 2, compound Y 50 μM, Y+N 50 μM+50 μM (1:1), YN salt 50 μM for 24 h): 72% | serum alkaline phosphatase (ALP) levels ([1]; Example 9, FIG. 7, 50 mg/kg intragastric twice daily, day -3 to day 2): reduced serum ALP levels | serum alkaline phosphatase (ALP) levels ([1]; Example 9, FIG. 7, 100 mg/kg intragastric twice daily, day -3 to day 2): significantly reduced serum alkaline phosphatase (ALP) levels | serum ALT levels ([1]; Example 9, FIG. 8, 50 mg/kg intragastric twice daily): reduced serum ALT levels | serum ALT levels ([1]; Example 9, FIG. 8, 100 mg/kg intragastric twice daily): significantly reduced serum ALT levels | serum AST levels [1, 4]: reduced serum AST levels in a dose-dependent manner

C[C@H](CC(=O)O)[C@H]1CC[C@H]2[C@@H]3[C@@H](O)C[C@@H]4C[C@H](O)CC[C@]4(C)[C@H]3CC[C@]12C [Compound N, 24-Norursodeoxycholic acid]
cell viability (HepG2 cells; [3]): trend toward improved cell viability, but the trend was not significant | cell viability (HepG2 cells; Example 5, FIG. 2): trend toward improved cell viability, but the trend was not significant

COc1ccc2cc3[n+](cc2c1OC)CCc1cc2c(cc1-3)OCO2 [Compound B, Berberine hydrochloride]
cell viability (HepG2 cells; [3]): highly significant increase in cell viability | serum alkaline phosphatase (ALP) levels ([1]; Example 9, FIG. 7, 100 and 50 mg/kg intragastric twice daily): increased serum ALP levels in a dose-dependent manner | serum ALT levels ([1]; Example 9, FIG. 8, 100 and 50 mg/kg intragastric twice daily): increased serum ALT levels in a dose-dependent manner | serum AST levels [1, 4]: increased serum AST levels in a dose-dependent manner

C[C@H](CCC(=O)O)[C@H]1CC[C@H]2[C@@H]3[C@@H](O)C[C@@H]4C[C@H](O)CC[C@]4(C)[C@H]3CC[C@]12C [U, Ursodeoxycholic acid]
serum alkaline phosphatase (ALP) levels ([1]; Example 10, FIG. 10, U 100 mg/kg intragastric twice daily): reduced serum alkaline phosphatase (ALP) levels | serum ALT levels ([1]; Example 10, FIG. 11, U 100 mg/kg, Y+N 100+50 mg/kg intragastric twice daily): significantly increased serum ALT levels | serum AST levels ([1]; Example 10, FIG. 12, U 100 mg/kg, Y+N 100+50 mg/kg intragastric twice daily): significantly increased serum AST levels | bile pigment-positive area of the liver [2]: significant reduction in the bile pigment-positive area of the liver
